The supplement of paper PMC10307832

Experiments:
Assay in all cases: relative viability (nuclei count vs DMSO), 5 days (fraction); higher = more cells survive
A549 = test system: A549
Procedure, shortened: (§1)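 Cells from lung cancer lines were seeded into 1536-well plates and, one day later, dosed by pin tool. Treatments were either a single drug or a fixed dose of an anchor drug with five library-drug doses (not always all listed) in √10 steps. After 5 days, nuclei were stained in a one-step fixation (final 0.05% Triton X-100, 1% formaldehyde, 1 ug/ml Hoechst) and counted on 4× images, and relative viability is the treated-to-vehicle nuclei ratio, as the median of duplicate plates.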

ChaGo-K-1 = test system: ChaGo-K-1
Procedure, shortened: as §1

Calu-6 = test system: Calu-6
Procedure, shortened: as §1

NCI-H1299 = test system: NCI-H1299
Procedure, shortened: as §1

EBC-1 = test system: EBC-1
Procedure, shortened: as §1

IA-LM = test system: IA-LM
Procedure, shortened: as §1

NCI-H1703 = test system: NCI-H1703
Procedure, shortened: as §1

SMILES: COc1cc(N2CCC(C(N)=O)CC2)ccc1Nc1nc(N)c(Cl)c(Nc2ccccc2S(=O)(=O)C(C)C)n1 [HG-5-88-01] + CC1(C)CCC(c2ccc(Cl)cc2)=C(CN2CCN(c3ccc(C(=O)NS(=O)(=O)c4ccc(N[C@H](CCN5CCOCC5)CSc5ccccc5)c(S(=O)(=O)C(F)(F)F)c4)cc3)CC2)C1 [Navitoclax] (partner 0.5 µM)
- relative viability (A549; first compound 0.04 µM): 1.23
- relative viability (A549; first compound 0.1265 µM): 1.21
- relative viability (A549; first compound 0.4 µM): 1.07
- relative viability (A549; first compound 1.265 µM): 0.87
- relative viability (A549; first compound 4 µM): 0.687
- relative viability (ChaGo-K-1; first compound 0.04 µM): 1.05
- relative viability (ChaGo-K-1; first compound 0.1265 µM): 1.09
- relative viability (ChaGo-K-1; first compound 0.4 µM): 0.726
- relative viability (ChaGo-K-1; first compound 1.265 µM): 1.12
- relative viability (ChaGo-K-1; first compound 4 µM): 0.762
- relative viability (Calu-6; first compound 0.04 µM): 0.958
- relative viability (Calu-6; first compound 0.1265 µM): 0.86
- relative viability (Calu-6; first compound 0.4 µM): 0.717
- relative viability (Calu-6; first compound 1.265 µM): 0.693
- relative viability (Calu-6; first compound 4 µM): 0.46
- relative viability (NCI-H1299; first compound 0.04 µM): 1.03
- relative viability (NCI-H1299; first compound 0.1265 µM): 1.08
- relative viability (NCI-H1299; first compound 0.4 µM): 1.03
- relative viability (NCI-H1299; first compound 1.265 µM): 1.06
- relative viability (NCI-H1299; first compound 4 µM): 1.02
- relative viability (EBC-1; first compound 0.04 µM): 0.407
- relative viability (EBC-1; first compound 0.1265 µM): 0.457
- relative viability (EBC-1; first compound 0.4 µM): 0.427
- relative viability (EBC-1; first compound 1.265 µM): 0.241
- relative viability (EBC-1; first compound 4 µM): 0.217
- relative viability (IA-LM; first compound 0.04 µM): 0.835
- relative viability (IA-LM; first compound 0.1265 µM): 0.794
- relative viability (IA-LM; first compound 0.4 µM): 0.731
- relative viability (IA-LM; first compound 1.265 µM): 0.825
- relative viability (IA-LM; first compound 4 µM): 0.802
- relative viability (NCI-H1703; first compound 0.04 µM): 0.719
- relative viability (NCI-H1703; first compound 0.1265 µM): 1.22
- relative viability (NCI-H1703; first compound 0.4 µM): 1.2
- relative viability (NCI-H1703; first compound 1.265 µM): 0.926
- relative viability (NCI-H1703; first compound 4 µM): 0.762

SMILES: CC(C)Oc1cc(Nc2nc(N[C@@H](C)c3ccc(F)cn3)ncc2Cl)n[nH]1 [AZ23] + CC1(C)CCC(c2ccc(Cl)cc2)=C(CN2CCN(c3ccc(C(=O)NS(=O)(=O)c4ccc(N[C@H](CCN5CCOCC5)CSc5ccccc5)c(S(=O)(=O)C(F)(F)F)c4)cc3)CC2)C1 [Navitoclax] (partner 0.5 µM)
- relative viability (A549; first compound 0.01 µM): 1.58
- relative viability (A549; first compound 0.03162 µM): 1.48
- relative viability (A549; first compound 0.3162 µM): 1.2
- relative viability (ChaGo-K-1; first compound 0.01 µM): 0.782
- relative viability (ChaGo-K-1; first compound 0.03162 µM): 1.23
- relative viability (ChaGo-K-1; first compound 0.3162 µM): 0.949
- relative viability (Calu-6; first compound 0.03162 µM): 0.952
- relative viability (Calu-6; first compound 0.3162 µM): 0.739
- relative viability (NCI-H1299; first compound 0.01 µM): 1.08
- relative viability (NCI-H1299; first compound 0.03162 µM): 1.04
- relative viability (NCI-H1299; first compound 0.3162 µM): 1.08
- relative viability (EBC-1; first compound 0.01 µM): 0.37
- relative viability (EBC-1; first compound 0.03162 µM): 0.451
- relative viability (EBC-1; first compound 0.3162 µM): 0.371
- relative viability (IA-LM; first compound 0.01 µM): 0.837
- relative viability (IA-LM; first compound 0.03162 µM): 0.97
- relative viability (IA-LM; first compound 0.3162 µM): 0.848
- relative viability (NCI-H1703; first compound 0.03162 µM): 1.13
- relative viability (NCI-H1703; first compound 0.3162 µM): 1.08

SMILES: COc1cc(N2CCC(C(N)=O)CC2)ccc1Nc1nc(N)c(Cl)c(Nc2ccccc2S(=O)(=O)C(C)C)n1 [HG-5-88-01] + CS(=O)(=O)N1CCN(Cc2cc3nc(-c4cccc5[nH]ncc45)nc(N4CCOCC4)c3s2)CC1 [Pictilisib] (partner 1 µM)
- relative viability (A549; first compound 0.04 µM): 0.482
- relative viability (A549; first compound 0.1265 µM): 0.495
- relative viability (A549; first compound 0.4 µM): 0.389
- relative viability (A549; first compound 1.265 µM): 0.323
- relative viability (A549; first compound 4 µM): 0.237
- relative viability (ChaGo-K-1; first compound 0.04 µM): 0.794
- relative viability (ChaGo-K-1; first compound 0.1265 µM): 0.785
- relative viability (ChaGo-K-1; first compound 0.4 µM): 0.679
- relative viability (ChaGo-K-1; first compound 1.265 µM): 0.863
- relative viability (ChaGo-K-1; first compound 4 µM): 0.556
- relative viability (Calu-6; first compound 0.04 µM): 0.942
- relative viability (Calu-6; first compound 0.1265 µM): 0.869
- relative viability (Calu-6; first compound 0.4 µM): 0.848
- relative viability (Calu-6; first compound 1.265 µM): 0.824
- relative viability (Calu-6; first compound 4 µM): 0.698
- relative viability (NCI-H1299; first compound 0.04 µM): 0.745
- relative viability (NCI-H1299; first compound 0.1265 µM): 0.724
- relative viability (NCI-H1299; first compound 0.4 µM): 0.725
- relative viability (NCI-H1299; first compound 1.265 µM): 0.643
- relative viability (NCI-H1299; first compound 4 µM): 0.682
- relative viability (EBC-1; first compound 0.04 µM): 0.394
- relative viability (EBC-1; first compound 0.1265 µM): 0.362
- relative viability (EBC-1; first compound 0.4 µM): 0.339
- relative viability (EBC-1; first compound 1.265 µM): 0.324
- relative viability (EBC-1; first compound 4 µM): 0.217
- relative viability (IA-LM; first compound 0.04 µM): 0.398
- relative viability (IA-LM; first compound 0.1265 µM): 0.252
- relative viability (IA-LM; first compound 0.4 µM): 0.244
- relative viability (IA-LM; first compound 1.265 µM): 0.172
- relative viability (IA-LM; first compound 4 µM): 0.145
- relative viability (NCI-H1703; first compound 0.04 µM): 0.217
- relative viability (NCI-H1703; first compound 0.1265 µM): 0.223
- relative viability (NCI-H1703; first compound 0.4 µM): 0.228
- relative viability (NCI-H1703; first compound 1.265 µM): 0.222
- relative viability (NCI-H1703; first compound 4 µM): 0.226
